Measurements: PMC9570594, “Development of Novel Pyridine-Thiazole Hybrid Molecules as Potential Anticancer Agents” (Molecules, 2022)
Where two headings read alike, the source gives them in different places.

Key:
[1] = system: MCF-7 breast cancer cells; assay: Annexin V-FITC/PI binding assay (flow cytometry); conditions: MCF-7, 5 µM, 24 h; control 4.4 ± 0.6%
Procedure: Annexin V-FITC and Propidium Iodide were used for apoptosis measurement.
Apoptosis was determined, as described [42], using Annexin V-FITC binding by means of the FITC Annexin V Apoptosis Detection Kit II(BD Biosciences, San Diego, CA, USA) according to the manufacturer’s instruction. Cells (10,000 cell measured) were analyzed in a BD FACSCanto II flow cytometer (BD Biosciences, San Diego, CA, USA). Annexin V binds with high affinity to phosphatidylserine, and thus, can be used to identify cells in all stages of the programmed cell death. Propidium iodide (PI) exclusively stains cells with a disrupted cell membrane and can be used to identify late apoptotic and dead cells. Cells cultured in a drug-free medium were used as controls. […] The contents of the test tubes were gently vortexed and incubated for 15 min at room temperature, protected from light. After the required time, the contents of the test tubes were made up to 500 µL with the Binding Buffer and immediately analyzed in a flow cytometer. The ratio of the apoptotic cells (early and late) was measured as: a percentage of cells from the upper right square (color red) to percentage of cells from the lower right square (color blue). Analysis was performed using the BD FACSCanto II flow cytometer, and the results were analyzed with FACSDiva software (both from BD Biosciences Systems, San Jose, CA, USA). […]

[2] = system: panel of cancer cell lines; assay: MTT assay, summary over the tumor cell lines; conditions: 72 h; for IC50: Homo sapiens, read-out: IC50 toward tumor cells (depending on tumor cell line)
[3] = system: MCF-7 breast cancer cells; assay: Mitochondrial membrane potential, JC-1 (flow cytometry); assay type: cell-based, human; conditions: MCF-7, 5 µM, 24 h, control 5.1 ± 0.7%
Procedure: A decrease in the mitochondrial membrane potential (MMP, ΔΨm) is one of the earliest changes observed at apoptosis. […] The MCF-7 cells had depolarized mitochondria, reaching 25.3 ± 1.5% and 24.7 ± 0.4% of the cell population treated with the compound 4 and 7, respectively. In the control, there were only 5.1 ± 0.7% cells with a decreased ΔΨm.
Disruption of the MMP was assessed using the lipophilic cationic probe 5,5,6,6-tetrachloro-1,1,3,3-tetraethylbenzimidazolcarbocyanine iodide (JC-1 MitoScreen kit; BD Biosciences San Diego, CA, USA), as described previously. The entire assay was performed according to the manufacturer’s instructions provided with the purchased kit. […] Briefly, unfixed MCF-7 cells were washed and resuspended in the PBS supplemented with the JC-1 dye. Then, cells were incubated for 15 min at room temperature (RT) in the dark, washed, and resuspended in the PBS for the immediate BD FACSCanto II flow cytometry analysis.

[4] = system: MCF-7 (breast); assay: MTT assay of cell viability
[5] = system: KB3-1 (cervix); assay: MTT assay of cell viability
[6] = system: HL-60 cells of the acute human promyelocytic leukemia; assay: MTT assay of cell viability
[7] = system: HCT-116 (colon); assay: MTT assay of cell viability
[8] = system: MCF-7 cells; assay: PARP-1 inhibition in vitro: MTT after Fluzoparib pretreatment; assay type: cell-based, human; conditions: for IC50: Homo sapiens, MCF7
Procedure: Taking into account the above data, PARP1 inhibition in vitro was investigated using pretreatment of the MCF-7 cells with the Fluzoparib, a potent PARP1 inhibitor in the non-toxic concentrations of 5, 10, and 15 µM. It had no significant growth inhibitory effect in such doses, and a reduction of cell viability by only 10–12% was observed compared to control (non-treated) cells. […] The preincubation step was used to bind PARP1 molecules, which were the potential targets of the studied compounds and to test if it would affect the activity of 3 and 4. […] The preincubation of cells with the Fluzoparib decreased their sensitivity to the compound 3 treatment in a less pronounced manner, compared with the effect of the compound 4. […] Changes in structure of the started compound 3 may cause an enhancement of the ability of molecule 4 to inhibit the activity of PARP1.
To determine PARP inactivation, the MCF-7 cells were pretreated for 2 h in the non-toxic concentrations of 5, 10, 15 µM of the Fluzoparib (Med Chem Express, Monmouth Junction, NJ, USA), a potent PARP1 inhibitor used in the chemotherapy. Then, the medium was removed and increasing doses of the compounds 3 and 4 were added and cells were incubated for the next 72 h. The IC50 values of compounds were determined by the MTT assay, as described.

[9] = system: HCT-116 p53 (−/−) colon cancer cells; assay: MTT assay of cell viability; conditions: Homo sapiens, HCT-116, 72 h
Excerpt: The cell lines used in our work were kindly provided by a Collection at the Institute of Molecular Biology and Genetics, National Academy of Sciences of Ukraine (Kyiv, Ukraine).

[10] = system: murine macrophages of J774.2 line; assay: MTT assay of cell viability; conditions: Mus musculus, J774.2, 72 h
[11] = system: A549 (lung); assay: MTT assay of cell viability; conditions: Homo sapiens, A549, 72 h
[12] = system: human epidermal keratinocytes of HaCaT line; assay: MTT assay of cell viability; conditions: 72 h
[13] = system: Jurkat (leukemia); assay: MTT assay of cell viability; conditions: Homo sapiens, 72 h
[14] = system: SK-OV-3 (ovarian); assay: MTT assay of cell viability; conditions: Homo sapiens, SK-OV-3, 72 h
[15] = system: panel of 60 cancer cell lines; assay: NCI DTP one-dose primary anticancer assay (10^-5 M, SRB); conditions: 10 μM; for Range of Growth, %: 48 h, 60 cell lines; for Positive Cytostatic Effect: number of cell lines with percent growth from 0 to 50 / total number of cell lines; for Positive Cytotoxic Effect: number of cell lines with percent growth of <0 / total number of cell lines
Procedure: (§1) Primary anticancer assays (Table 3) on a panel of 60 cancer cell lines at one dose-assay (10^−5 M) were performed according to the NCI protocol, as described elsewhere [31, 32, 33, 34, 35].
(§2) A primary anticancer assay was performed on a panel of approximately sixty human tumor cell lines derived from nine neoplastic diseases, in accordance with the protocol of the Drug Evaluation Branch, National Cancer Institute, Bethesda [31, 32, 33, 34, 35]. Tested compounds were added to the culture at a single concentration (10^−5 M) and the cultures were incubated for 48 h. End point determinations were made with a protein binding dye, Sulphorhodamine B (SRB). […] The percentage growth was evaluated spectrophotometrically versus controls not treated with test agents.

[16] = system: K-562 (Leukemia); assay: NCI one-dose SRB assay; conditions: 10 μM, 48 h
Procedure: as §1, §2

[17] = system: SR (Leukemia); assay: NCI one-dose SRB assay; conditions: 10 μM, 48 h
Procedure: as §1, §2

[18] = system: SK Mel-5 (Melanoma); assay: NCI one-dose SRB assay; conditions: 10 μM, 48 h
Procedure: (§3) Tested compounds were added to the culture at a single concentration (10^−5 M) and the cultures were incubated for 48 h. End point determinations were made with a protein binding dye, Sulphorhodamine B (SRB). […] The percentage growth was evaluated spectrophotometrically versus controls not treated with test agents.

[19] = system: T-47D (Brest Cancer); assay: NCI one-dose SRB assay; conditions: 10 μM, 48 h
Procedure: as §3

[20] = system: MDA-MB-435 (Melanoma); assay: NCI one-dose SRB assay; assay type: cell-based, human; conditions: 10 μM, 48 h
[21] = system: HL-60(TB) (Leukemia); assay: NCI one-dose SRB assay; assay type: cell-based, human; conditions: 10 μM, 48 h
[22] = system: NCI-H522 (Non-Small Cell Lung Cancer); assay: NCI one-dose SRB assay; conditions: 10 μM, 48 h
Procedure: as §1, §2

[23] = system: CCRF-CEM (Leukemia); assay: NCI one-dose SRB assay; assay type: cell-based, human; conditions: 10 μM, 48 h
[24] = system: BALB-3T3 (normal mouse fibroblasts); assay: MTT assay of cell viability; conditions: BALB/3T3, 72 h
[25] = system: MDA-MB-468 (Brest Cancer); assay: NCI one-dose SRB assay; assay type: cell-based, human; conditions: 10 μM, 48 h
[26] = system: human embryonic kidney HEK293 cells; assay: MTT assay of cell viability; conditions: HEK293, 72 h
[27] = system: KB3-1 cells; assay: Fluorescent microscopy of morphological changes (Hoechst 33342/PI); assay type: cell-based, human; conditions: 48 h
Procedure: In addition, we observed multinucleated giant cells. […] The condensed chromatin, a characteristic feature of apoptosis, and dead cells were observed under the action of all studied compounds.
KB3-1 cells were seeded in the 12-well plates (CytoONE, STARLAB International GmbH, Hamburg, Germany) on glass microscopic slides and incubated overnight. Studied compounds were added to cells in the following concentrations: the compounds 3, 4 and cisplatin—5 µM/mL, doxorubicin—1 µM/mL. Cells were incubated for the next 48 h. Chromatin material of living and apoptotic cells was stained with the DNA-specific fluorescent dye Hoechst 33342 (Sigma-Aldrich, Burlington, MA, USA) and the DNA/RNA-specific fluorescent dye Propidium iodide (PI, Sigma, Burlington, MA, USA). Fluorochromes were added to cultured cells at final concentrations 0.2–0.5 μg/mL for Hoechst 33342 and 0.1 μg/mL—for PI. Images were made with a fluorescent Zeiss microscope (Carl Zeiss, Oberkochen, Germany). Magnification ×400. Microphotographs were additionally analyzed using ImagePro7N software.

[28] = system: pseudo-normal cell lines (HEK293, HaCaT); assay: MTT assay, summary over pseudo-normal cell lines; conditions: Homo sapiens, 72 h, read-out: IC50 towards pseudo-normal cell lines
[29] = system: MCF-7 cells; assay: Clonogenic assay; assay type: cell-based, human; conditions: MCF-7, positive control, concentration not given, 10 days
Procedure: This assay essentially tests every cell in the population for its ability to undergo “unlimited” division. […] At 1 µM concentration, it reduced the ability of the MCF-7 single cell to grow into a colony to 36%. […] With a concentration equivalent to 10 µM of the compound 4, the DMSO increased the cell’s ability to grow in colony.
MCF-7 cells were seeded in triplicate in 6-well plates (CytoONE, STARLAB International GmbH, Germany) at a density of 500 cells per well. After 24 h incubation, the compound 4 was added in 1 and 10 μM concentrations and cells were treated for 10 days. Colonies containing ≥ 50 cells were fixed with 50% (v/v) methanol in the PBS and stained with crystal violet (Sigma-Aldrich, Burlington, MA, USA). Stained colonies were counted and expressed as a fraction of the untreated control.

[30] = MCF-7, 72 h of incubation, M ± SD
[31] = HL-60, 72 h of incubation, M ± SD
[32] = HCT-116, 72 h of incubation, M ± SD
[33] = Homo sapiens, MCF7, 72 h, MCF-7, 72 h of incubation, M ± SD
[34] = Homo sapiens, KB 3-1, 72 h, KB3-1, 72 h of incubation, M ± SD
[35] = Homo sapiens, HCT-116, 72 h, HCT-116, 72 h of incubation, M ± SD

## CS(=O)(=O)O.Cc1nc(Nc2ccccn2)sc1C(=O)/C=C/c1ccccc1F [Compound 7, (E)-3-(2-Fluorophenyl)-1-[4-methyl-2-(pyridin-1-ium-2-ylamino)thiazol-5-yl]-2-propen-1-one Methanesulfonate]
[1]
  apoptotic cells (sum of early and late apoptotic cells): 31.0 ± 1.9%
[2]; summary over tumor cell lines, MTT
  IC50 toward tumor cells (depending on tumor cell line): acted more weakly compared with 3 and 4
[3]
  cells with depolarized mitochondria (decreased ΔΨm): 24.7 ± 0.4%
[4]; [30]
  IC50: 4.3 ± 0.98 µM
[5]; KB3-1, 72 h of incubation, M ± SD
  IC50: 3.96 ± 1.23 µM
[6]; [31]
  IC50: > 10 µM
[7]; [32]
  IC50: 7.27 ± 0.27 µM

## O=C(c1cc(Cc2n[nH]c(=O)c3ccccc23)ccc1F)N1CCn2nc(C(F)(F)F)nc2C1 [Fluzoparib, reference compound]
[8]
  IC50: 47 µM
[8]; MCF-7, 5, 10 and 15 µM, compared to non-treated cells
  reduction of cell viability: 10–12%

## CC(=O)c1sc(Nc2ccccn2)nc1C [Compound 2, 1-[4-Methyl-2-(2-pyridylamino)thiazol-5-yl]ethanone]
[9]
  IC50: > 50 µM
[10]
  IC50: > 50 µM
[11]
  IC50: > 50 µM
[12]
  IC50: > 50 µM
[13]
  IC50: > 50 µM
[2]
  IC50: > 50 µM
[4]; [33]
  IC50: > 50 µM
[14]
  IC50: > 50 µM
[5]; [34]
  IC50: 38 ± 1.9 µM
[7]; [35]
  IC50: > 50 µM

## CC(=O)N1N=C(c2sc(Nc3ccccn3)nc2C)CC1c1ccccc1F (stereo not drawn) [Compound 6, 1-{5-(2-Fluorophenyl)-3-[4-methyl-2-(2-pyridylamino)-thiazol-5-yl]-4,5-dihydropyrazol-1-yl}-ethanone]
[9]
  IC50: 29.1 ± 1.45 µM
[10]
  IC50: > 50 µM
[15]
  Range of Growth, %: 12.53–95.32%
  Positive Cytostatic Effect: 32/59
  Positive Cytotoxic Effect: 0/59
[11]
  IC50: 63.4 ± 3.81 µM
[16]
  Growth %: 15.62%
[12]
  IC50: > 50 µM
[17]
  Growth %: 12.53%
[13]
  IC50: > 100 µM
[18]
  Growth %: 17.75%
[4]; [33]
  IC50: 45.4 ± 2.2 µM
[14]
  IC50: 39.6 ± 2.37 µM
[19]
  Growth %: 14.27%
[5]; [34]
  IC50: 24.9 ± 0.74 µM
[7]; [35]
  IC50: > 50 µM

## Cc1nc(Nc2ccccn2)sc1C1=NNC(c2ccccc2F)C1 (stereo not drawn) [Compound 5, {5-[5-(2-Fluorophenyl)-4,5-dihydro-1H-pyrazol-3-yl]-4-methylthiazol-2-yl}-(pyridin-2-yl)-amine]
[9]
  IC50: 34.5 ± 1.02 µM
[20]
  Growth %: −17.91%
[10]
  IC50: > 50 µM
[15]
  Range of Growth, %: −18.90–118.83%
  Positive Cytostatic Effect: 25/60
  Positive Cytotoxic Effect: 3/60
[21]
  Growth %: 4.96%
[11]
  IC50: 33.1 ± 1.32 µM
[22]
  Growth %: −18.90%
[16]
  Growth %: 15.13%
[12]
  IC50: > 50 µM
[23]
  Growth %: 19.12%
[17]
  Growth %: 12.44%
[13]
  IC50: > 50 µM
[24]
  IC50: 34.2 ± 1.7 µM
[25]
  Growth %: −13.74%
[26]
  IC50: 45.4 ± 2.26 µM
[4]; [33]
  IC50: > 50 µM
[14]
  IC50: > 50 µM
[5]; [34]
  IC50: 13.1 ± 0.52 µM
[7]; [35]
  IC50: > 50 µM

## Cc1nc(Nc2ccccn2)sc1C(=O)/C=C/c1ccccc1F [Compound 3, (E)-3-(2-Fluorophenyl)-1-[4-methyl-2-(2-pyridylamino)-thiazol-5-yl]-2-propen-1-one]
[9]
  IC50: 2.81 ± 0.16 µM
[10]
  IC50: > 50 µM
[27]; KB3-1, 5 µM
  morphological changes: significantly less DNA damage
[11]
  IC50: 4.56 ± 0.22 µM
[8]; MCF-7, compound alone (no preincubation), 72 h MTT, read-out: IC50
  IC50: 3.9 µM
[12]
  IC50: > 50 µM
[13]
  IC50: 5.2 ± 0.1 µM
[24]
  IC50: 7.18 ± 0.21 µM
[2]
  IC50: 0.57 to 7.8 µM
[26]
  IC50: > 50 µM
[4]; [30]
  IC50: 1.86 ± 0.9 µM
[14]
  IC50: > 50 µM
[5]; [34]
  IC50: 7.42 ± 0.22 µM
[6]; [31]
  IC50: 0.57 ± 0.35 µM
[28]
  IC50: > 50 µM
[7]; [32]
  IC50: 2.9 ± 1.03 µM

## N.N.[Cl][Pt][Cl] [cisplatin, reference compound]
[27]; KB3-1, 5 µM
  morphological changes: significantly less DNA damage

## COc1cccc2c1C(=O)c1c(O)c3c(c(O)c1C2=O)C[C@@](O)(C(=O)CO)C[C@@H]3O[C@H]1C[C@H](N)[C@H](O)[C@H](C)O1 [Doxorubicin, reference compound]
[9]
  IC50: 1.19 ± 1.3 µM
[29]
  ability of single cell to grow into a colony (compared with control): 3%
[10]
  IC50: 1.74 ± 1.1 µM
[27]; KB3-1, 1 µM
  morphological changes: induced cell membrane damage and membrane blebbing to a greater extent
[11]
  IC50: 2 ± 0.35 µM
[12]
  IC50: > 10 µM
[13]
  IC50: 1.17 ± 0.12 µM
[24]
  IC50: 3.18 ± 0.25 µM
[26]
  IC50: 1.29 ± 0.87 µM
[4]; Homo sapiens, MCF7, 72 h
  IC50: 1.04 ± 0.8 µM
[14]
  IC50: 3.2 ± 0.1 µM
[5]; Homo sapiens, KB 3-1, 72 h
  IC50: 4 ± 1.3 µM
[6]; Homo sapiens, HL-60, 72 h
  IC50: 0.38 ± 0.5 µM
[7]; Homo sapiens, HCT-116, 72 h
  IC50: 0.9 ± 0.09 µM
